Columns and labels:
chickens [1] = assay: Serum cholesterol, apolipoproteins, triglycerides and glucose in chickens fed supplemented diets; assay type: in vivo, chicken; conditions: control diet + 50 ppm, 4 weeks
From the text: All assays conducted on chicken or swine serum were done following the protocols described in A. A. Qureshi et al., "Lowering Of Serum Cholesterol In Hypercholesterolemic Humans By Tocotrienols" (Palmvitee), Am. J. Clin. Nutr., 53, pp. 1021S-26S (1991). All enzymatic assays were done following the protocols described in A. A. Qureshi et al., "Effects of Cereals and Culture Filtrate of Trichoderma viride on Lipid Metabolism of Swine", Lipids, 17, pp. 924 (1982). Plasma insulin, glucagon and TNF levels were measured using radioinnumoassay kits from Ventrex Laboratories, Inc. (Portland, Me.), ICN Biomedicals, Inc. (Costa Mesa, Calif.) and Genzyme Corp. (Cambridge, Mass.), respectively. […]
Each group of 6 chickens (6-week old female while leghorn) was administered the chick mash diet described in Example 5, supplemented with one of three different amounts of waxes (sterols), 50 ppm of TRF (prepared as in Example 2) or 5% equivalent of the methanol insoluble fraction Louisiana rice bran oil. […] The birds were fasted for a period of 14 hours prior to sacrifice (at 0800 hours). […]

HMG-CoA reductase [2] = biological target: T1, HMG-CoA reductase (Homo sapiens, UniProt P04035); assay: Hepatic HMG-CoA reductase activity in chickens fed supplemented diets; assay type: in vivo, chicken; conditions: control diet + 50 ppm, 4 weeks
T1 construct: hepatocytes isolated from livers of 8-week old female chickens; endogenous in cells; host or cells: primary chicken hepatocytes
T1 sequence (P04035 1-888): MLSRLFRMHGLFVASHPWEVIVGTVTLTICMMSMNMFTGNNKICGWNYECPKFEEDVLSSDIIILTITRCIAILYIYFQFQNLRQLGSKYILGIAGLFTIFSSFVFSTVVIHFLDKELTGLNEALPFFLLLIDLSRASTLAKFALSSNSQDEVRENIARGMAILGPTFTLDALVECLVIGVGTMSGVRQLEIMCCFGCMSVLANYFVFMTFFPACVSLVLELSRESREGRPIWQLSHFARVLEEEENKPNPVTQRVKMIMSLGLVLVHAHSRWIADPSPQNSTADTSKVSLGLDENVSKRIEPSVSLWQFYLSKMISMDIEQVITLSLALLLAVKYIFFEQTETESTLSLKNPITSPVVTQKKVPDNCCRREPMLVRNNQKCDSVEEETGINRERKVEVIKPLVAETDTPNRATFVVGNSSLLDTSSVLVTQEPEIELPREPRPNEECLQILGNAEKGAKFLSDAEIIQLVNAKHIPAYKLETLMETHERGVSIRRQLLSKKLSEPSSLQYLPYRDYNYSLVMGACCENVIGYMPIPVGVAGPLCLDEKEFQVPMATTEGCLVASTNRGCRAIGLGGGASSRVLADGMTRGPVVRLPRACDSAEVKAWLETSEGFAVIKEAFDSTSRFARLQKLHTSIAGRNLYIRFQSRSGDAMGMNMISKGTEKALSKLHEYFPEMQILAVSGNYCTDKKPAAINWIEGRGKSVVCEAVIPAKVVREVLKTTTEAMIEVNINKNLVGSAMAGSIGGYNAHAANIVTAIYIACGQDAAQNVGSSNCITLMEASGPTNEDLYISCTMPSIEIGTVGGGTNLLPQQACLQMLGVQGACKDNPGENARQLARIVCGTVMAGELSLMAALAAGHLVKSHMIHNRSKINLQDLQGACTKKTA
Protocol: (§3) This example measured the effects of the TRF and its components on the hepatic enzymatic activity of HMG-CoA reductase and cholesterol 7α-hydroxylase. […] The amount of feed consumed ranged from 11.19-11.60 g per chicken and the feeding period was 4 weeks. The birds were fasted for a period of 36 hours and refed for 48 hours prior to sacrifice (at 0800 hours).

[3] = tested on: cholesterol 7α-hydroxylase; assay: Hepatic cholesterol 7α-hydroxylase activity in chickens fed supplemented diets; assay type: in vivo, chicken; conditions: control diet + 50 ppm, 4 weeks
Protocol: as §3

chickens [4] = assay: Plasma thromboxane B2 and platelet factor 4 in chickens fed supplemented diets; assay type: in vivo, chicken; conditions: control diet + 50 ppm, 4 weeks
From the text: We next measured the effects of TRF and its components on serum levels of apolipoprotein (a)1, apolipoprotein B, triglycerides and glucose and the plasma levels of thromboxane B2 and platelet factor 4.

HMG-CoA reductase [5] = biological target: T1, HMG-CoA reductase; assay: HMG-CoA reductase activity in isolated chicken hepatocytes; assay type: cell-based
Protocol: (§1) This study measured the effects of three tocotrienols isolated from rice bran on cholesterol-related enzyme activity in hepatocytes isolated from livers of 8-week old female chickens. The chickens were fed the chick mash diet for 8 weeks. They were then fasted for 40 hours and finally refed for 48 hours before sacrifice. The hepatocytes were then prepared following standard methods.
(§2) Each compound was isolated from TRF using the following protocol: A bond Elute amine column was equilibrated with 2 ml hexane. 10 mg of TRF (dissolved in 0.5 ml hexane) was bound to the amine column. The column was washed with 1 ml of hexane, then with 1 ml of 3% isopropanol in hexane. P-21 and P-25 were eluted off the column with 5% isopropanol in hexane. Then using 10% isopropanol in hexane, the impurity P-20 was eluted. α-tocotrienol was also tested.
We next measured the effects of various tocotrienols and tocotrienol-like compounds isolated from rice bran on the activity of HMG-CoA reductase. 20.0 g of stabilized rice bran was extracted with 200.0 ml of methanol to remove various UV absorbing impurities and tocotrienols (6.7 mg total). This step was repeated four times. The remaining residue was dried under vacuum in a desiccator and then heated at 180° C. for 2 hours under 30 psi pressure. Then the dried residue was extracted again with 200.0 ml methanol (3.4 mg). […]

Fatty Acid Synthase = biological target: T2, Fatty Acid Synthase (Gallus gallus, UniProt P12276); assay: Fatty acid synthase activity in isolated chicken hepatocytes; assay type: cell-based
T2 construct: hepatocytes isolated from livers of 8-week old female chickens; endogenous in cells; host or cells: primary chicken hepatocytes
Protocol: as §1, §2

[6] = tested on: cholesterol 7α-hydroxylase; assay: Cholesterol 7α-hydroxylase activity in isolated chicken hepatocytes; assay type: cell-based
Protocol: as §1, §2

chickens [7] = assay: Antibody titers to sheep red blood cells in chickens; assay type: in vivo, chicken; conditions: control diet + 50 ppm, 4 weeks, sheep red blood cells i.p.
Protocol: The model for this study was 6-week old female white leghorn chickens. Each group of 12 chickens was fed an unsupplemented chicken diet or a control diet supplemented with 50 ppm of a tocotrienol or 100 ppm of a commercially available hypercholesterolemic agent (Geraniol or Lovastatin). […] The chickens were fed over a period of 4 weeks, then the blood was drawn. The antibody response was determined by injecting the chickens i.p. with 0.5 ml of a 5% suspension of sheep red blood cells (RBCs) in PBS (v/v) which were previously washed three times. […] Relative IgG levels were determined by using 2-mercaptoethanol preincubation for 30 min. The relative IgM levels were calculated by subtracting the IgG antibody levels from total antibody levels. All antibody levels are expressed as the log base 2 of the highest titer that was needed to hemagglutinate an equal volume of 0.5% RBC suspension.

T2 sequence (P12276 2-2512 limits assumed): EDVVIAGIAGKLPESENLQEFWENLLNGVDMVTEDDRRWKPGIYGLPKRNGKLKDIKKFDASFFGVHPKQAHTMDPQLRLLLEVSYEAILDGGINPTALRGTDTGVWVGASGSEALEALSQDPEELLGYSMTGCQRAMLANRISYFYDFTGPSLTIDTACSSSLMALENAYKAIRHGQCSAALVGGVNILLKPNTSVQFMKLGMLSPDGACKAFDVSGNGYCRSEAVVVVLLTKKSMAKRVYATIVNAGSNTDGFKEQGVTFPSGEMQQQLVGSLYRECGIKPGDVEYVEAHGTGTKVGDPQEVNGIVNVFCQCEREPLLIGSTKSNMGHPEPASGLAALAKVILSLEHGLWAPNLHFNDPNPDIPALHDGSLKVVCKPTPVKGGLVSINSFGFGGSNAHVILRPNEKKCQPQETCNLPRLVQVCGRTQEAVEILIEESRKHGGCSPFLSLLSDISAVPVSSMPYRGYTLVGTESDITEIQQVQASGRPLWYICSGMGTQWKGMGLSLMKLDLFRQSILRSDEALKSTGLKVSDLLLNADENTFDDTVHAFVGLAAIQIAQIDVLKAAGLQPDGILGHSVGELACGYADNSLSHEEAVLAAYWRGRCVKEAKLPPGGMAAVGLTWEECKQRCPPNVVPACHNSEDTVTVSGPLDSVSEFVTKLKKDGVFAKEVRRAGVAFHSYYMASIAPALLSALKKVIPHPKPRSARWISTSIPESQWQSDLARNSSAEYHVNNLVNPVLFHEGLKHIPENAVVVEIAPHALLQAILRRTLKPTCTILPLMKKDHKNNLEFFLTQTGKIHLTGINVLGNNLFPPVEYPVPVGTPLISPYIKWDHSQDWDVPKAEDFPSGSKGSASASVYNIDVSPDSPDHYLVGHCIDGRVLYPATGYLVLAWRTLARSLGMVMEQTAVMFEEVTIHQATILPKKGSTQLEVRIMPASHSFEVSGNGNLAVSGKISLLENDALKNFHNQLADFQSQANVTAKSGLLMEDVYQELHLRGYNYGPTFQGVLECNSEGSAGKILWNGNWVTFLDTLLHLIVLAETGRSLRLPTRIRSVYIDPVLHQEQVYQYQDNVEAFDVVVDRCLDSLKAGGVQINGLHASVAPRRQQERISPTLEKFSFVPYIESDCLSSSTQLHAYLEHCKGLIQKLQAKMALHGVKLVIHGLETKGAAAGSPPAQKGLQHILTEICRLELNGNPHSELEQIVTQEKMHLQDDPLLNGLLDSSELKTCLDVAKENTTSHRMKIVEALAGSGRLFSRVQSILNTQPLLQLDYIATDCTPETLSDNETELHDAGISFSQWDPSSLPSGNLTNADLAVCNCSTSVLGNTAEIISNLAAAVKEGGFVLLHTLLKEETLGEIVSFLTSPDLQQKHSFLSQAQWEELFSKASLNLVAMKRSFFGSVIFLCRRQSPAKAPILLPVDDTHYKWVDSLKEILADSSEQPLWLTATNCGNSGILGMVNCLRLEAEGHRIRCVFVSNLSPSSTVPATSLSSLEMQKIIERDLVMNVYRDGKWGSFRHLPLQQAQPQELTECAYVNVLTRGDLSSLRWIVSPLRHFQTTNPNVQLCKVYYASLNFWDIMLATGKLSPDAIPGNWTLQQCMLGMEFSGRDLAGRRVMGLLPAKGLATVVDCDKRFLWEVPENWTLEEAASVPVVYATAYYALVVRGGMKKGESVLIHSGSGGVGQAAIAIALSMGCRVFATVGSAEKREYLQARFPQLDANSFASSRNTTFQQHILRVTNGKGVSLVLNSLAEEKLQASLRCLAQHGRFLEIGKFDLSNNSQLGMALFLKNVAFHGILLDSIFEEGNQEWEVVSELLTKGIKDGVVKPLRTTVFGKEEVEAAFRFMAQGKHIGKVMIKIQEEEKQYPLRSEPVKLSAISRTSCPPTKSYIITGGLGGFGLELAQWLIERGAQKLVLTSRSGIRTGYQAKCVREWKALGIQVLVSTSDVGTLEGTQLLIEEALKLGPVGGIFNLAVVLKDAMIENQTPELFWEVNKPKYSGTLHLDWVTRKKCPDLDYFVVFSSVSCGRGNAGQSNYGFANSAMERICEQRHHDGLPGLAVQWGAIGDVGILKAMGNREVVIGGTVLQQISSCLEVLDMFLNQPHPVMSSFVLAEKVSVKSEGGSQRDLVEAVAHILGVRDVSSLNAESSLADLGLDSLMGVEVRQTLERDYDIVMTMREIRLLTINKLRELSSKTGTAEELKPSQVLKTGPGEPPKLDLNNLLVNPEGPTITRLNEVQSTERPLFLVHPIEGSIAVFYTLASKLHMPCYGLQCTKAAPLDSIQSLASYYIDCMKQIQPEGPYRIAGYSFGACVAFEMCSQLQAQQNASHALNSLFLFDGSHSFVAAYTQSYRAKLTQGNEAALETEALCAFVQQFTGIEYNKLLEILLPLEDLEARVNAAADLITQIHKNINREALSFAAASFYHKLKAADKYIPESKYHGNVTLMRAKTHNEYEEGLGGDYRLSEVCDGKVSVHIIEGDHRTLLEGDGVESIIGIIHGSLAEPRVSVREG

CC(C)=CCC/C(C)=C/CC/C(C)=C/CC[C@]1(C)CCc2c(C)c(O)c(C)c(C)c2O1 [α-T3, α-tocotrienol]
APO A1, percentage of control (chickens [1]): 99.43% | APO A1 in serum (chickens [1]): 139.6 mg/100 ml | APO B in serum (chickens [1]): 29.30 mg/100 ml | APO B, percentage of control (chickens [1]): 88.52% | DL-Cholesterol/Total Cholesterol (chickens [1]): 0.61 | DL-Cholesterol/Total Cholesterol, percentage of control (chickens [1]): 104.30% | Glucose in serum (chickens [1]): 216.90 mg/100 ml | Glucose, percentage of control (chickens [1]): 96.70% | HDL-Cholesterol in serum (chickens [1]): 80.47 ± 0.67 mg/dL | HDL-Cholesterol, percentage of control (chickens [1]): 96.19% | HDL-Cholesterol/LDL-Cholesterol (chickens [1]): 2.09 | HDL-Cholesterol/LDL-Cholesterol, percentage of control (chickens [1]): 110.40% | LDL-Cholesterol in serum (chickens [1]): 47.97 ± 0.56 mg/dL | LDL-Cholesterol, percentage of control (chickens [1]): 87.12% | Total Cholesterol in serum (chickens [1]): 131.71 ± 1.08 mg/dL | Total Cholesterol, percentage of control (chickens [1]): 92.25% | Triglycerides in serum (chickens [1]): 68.04 mg/100 ml | Triglycerides, percentage of control (chickens [1]): 91.91% | HMG-CoA Reductase, percentage of control (HMG-CoA reductase [2]): 89.43% | Cholesterol 7α-Hydroxylase, percentage of control [3]: 104.60% | Cholesterol 7α-hydroxylase [3]: 10.69 nmol/min/mg | Platelet Factor 4 (chickens [4]): 8.78 ng/mL | Platelet Factor 4, percentage of control (chickens [4]): 67.07% | Thromboxane B2 (chickens [4]): 21.63 pg/mL | Thromboxane B2, percentage of control (chickens [4]): 83.71% | maximum reduction in activity of HMG-CoA reductase (HMG-CoA reductase [5]): 37.7% | Fatty Acid Synthase (Fatty Acid Synthase; 10.0 μg/mL): 15.2 nmol/min/mg | Fatty Acid Synthase, percentage of 0.0 μg/mL (Fatty Acid Synthase; 10.0 μg/mL): 88.4% | Fatty Acid Synthase (Fatty Acid Synthase; 20.0 μg/mL): 14.3 nmol/min/mg | Fatty Acid Synthase, percentage of 0.0 μg/mL (Fatty Acid Synthase; 20.0 μg/mL): 83.2% | Fatty Acid Synthase (Fatty Acid Synthase; 40.0 μg/mL): 12.4 nmol/min/mg | Fatty Acid Synthase, percentage of 0.0 μg/mL (Fatty Acid Synthase; 40.0 μg/mL): 72.1% | Cholesterol 7α-hydroxylase ([6]; 10.0 μg/mL): 2.12 pmol/min/mg | Cholesterol 7α-hydroxylase, percentage of 0.0 μg/mL ([6]; 10.0 μg/mL): 91.8% | Cholesterol 7α-hydroxylase ([6]; 20.0 μg/mL): 2.27 pmol/min/mg | Cholesterol 7α-hydroxylase, percentage of 0.0 μg/mL ([6]; 20.0 μg/mL): 98.7% | Cholesterol 7α-hydroxylase ([6]; 40.0 μg/mL): 2.34 pmol/min/mg | Cholesterol 7α-hydroxylase, percentage of 0.0 μg/mL ([6]; 40.0 μg/mL): 101.3% | IgG antibody titers in serum (chickens [7]): 1.00 Log 2 | IgM antibody titers in serum (chickens [7]): 6.60 ± 1.24 Log 2 | Total Ab titers in serum (chickens [7]): 7.10 ± 1.51 Log 2

— patent US6239171A, “Tocotrienols and tocotrienol-like compounds and methods for their use” (Lipogenics, Inc., priority 1998, dated 2001)
